# Values of other authors, collected in patent US8257686B2, “Compositions and methods relating to prevention of chemotherapy-induced alopecia” (HSF Pharmaceuticals S.A., priority 2000, dated 2012).
# Test system: chemotherapy-induced hair loss
# Conditions: review Dorr 1998; Sredni et al. 1996
row,SMILES,prevention of chemotherapy-induced hair loss
1,"C=C1/C(=C\C=C2/CCC[C@]3(C)[C@@H]([C@H](C)CCCC(C)(C)O)CC[C@@H]23)C[C@@H](O)C[C@@H]1O [1,25-dihydroxyvitamin D3]",showed a marked sex preference
2,"Cl[TeH]1(Cl)(Cl)OCCO1 [AS101, ammonium trichloro (dioxy-ethylene-0,0′) tellurate]",More promising results
3,Cc1c(C)c2c(c(C)c1O)CC[C@@](C)(CCC[C@H](C)CCC[C@H](C)CCCC(C)C)O2 [alpha-tocopherol],failed
4,C=C1/C(=C\C=C2/CCC[C@]3(C)[C@@H]([C@H](C)CCCC(C)(C)O)CC[C@@H]23)C[C@@H](O)C[C@@H]1O [calcitriol],failed
